Assay results taken from US6900193B1, “Structural modification of 19-norprogesterone I: 17-α-substituted-11-β-substituted-4-aryl and 21-substituted 19-norpregnadienedione as new antiprogestational agents” (The United States of America as represented by the …, priority 1996, dated 2005).

What was measured:
[1] = test system: progesterone-induced endometrial proliferation; assay: AntiClauberg test; type: in vivo, rabbit; details: oral; for BIOLOGICAL ACTIVITY antiClauberg: Table 2, CDB-2914 = 100 (assigned); for antiClauberg / oral antiprogestational activity, in words: versus the standard 69B
Protocol: AntiClauberg Test (Clauberg, C., Zentr. Gynakol., 54:2757-2770 (1930)) Immature female rabbits of the New Zealand White breed (approx. 1 kg body weight) were maintained under standard laboratory conditions and received a subcutaneous injection of 5 μg estradiol in 10% ethanol/sesame oil daily for 6 consecutive days. Twenty-four hours after the last dose of estradiol (day 7) animals received progesterone by subcutaneous injection (0.8 mg/day) and the experimental compound in appropriate vehicle (usually 10% ethanol/sesame oil) orally or subcutaneously for five consecutive days. One group of rabbits received progesterone only. Twenty-four hours after the last dose all animals were sacrificed for removal of the uterus which was cleaned of all fat and connective tissue, weighed to the nearest 0.2 mg and placed in 10% neutral buffered formalin for subsequent histological processing. Five micron sections stained with hematoxylin and eosin (H&E) were evaluated microscopically for the degree of endometrial glandular proliferation according to the method of McPhail (McPhail, supra). The percent inhibition of endometrial proliferation at each dose level of the experimental compound was derived by comparison with the progesterone-stimulated animals alone.

[2] = molecular target: T1, progesterone receptor (estrogen-primed rabbit uterus) (Oryctolagus cuniculus, UniProt P06186); assay: Relative binding affinity, progesterone receptor; details: for BINDING AFFINITY Progester: Table 2, estrogen-primed rabbit uterus, progesterone = 100%; for binding affinities compared with the standard, compound 69B: progesterone receptor implied (rabbit or human isoform A not specified)
T1 construct: preparation of cytosols for the progesterone and glucocorticoid receptor assays; from tissue; host or cells: uterus of estradiol-primed immature female New Zealand White rabbits (cytosol)
T1 sequence (P06186 1-930): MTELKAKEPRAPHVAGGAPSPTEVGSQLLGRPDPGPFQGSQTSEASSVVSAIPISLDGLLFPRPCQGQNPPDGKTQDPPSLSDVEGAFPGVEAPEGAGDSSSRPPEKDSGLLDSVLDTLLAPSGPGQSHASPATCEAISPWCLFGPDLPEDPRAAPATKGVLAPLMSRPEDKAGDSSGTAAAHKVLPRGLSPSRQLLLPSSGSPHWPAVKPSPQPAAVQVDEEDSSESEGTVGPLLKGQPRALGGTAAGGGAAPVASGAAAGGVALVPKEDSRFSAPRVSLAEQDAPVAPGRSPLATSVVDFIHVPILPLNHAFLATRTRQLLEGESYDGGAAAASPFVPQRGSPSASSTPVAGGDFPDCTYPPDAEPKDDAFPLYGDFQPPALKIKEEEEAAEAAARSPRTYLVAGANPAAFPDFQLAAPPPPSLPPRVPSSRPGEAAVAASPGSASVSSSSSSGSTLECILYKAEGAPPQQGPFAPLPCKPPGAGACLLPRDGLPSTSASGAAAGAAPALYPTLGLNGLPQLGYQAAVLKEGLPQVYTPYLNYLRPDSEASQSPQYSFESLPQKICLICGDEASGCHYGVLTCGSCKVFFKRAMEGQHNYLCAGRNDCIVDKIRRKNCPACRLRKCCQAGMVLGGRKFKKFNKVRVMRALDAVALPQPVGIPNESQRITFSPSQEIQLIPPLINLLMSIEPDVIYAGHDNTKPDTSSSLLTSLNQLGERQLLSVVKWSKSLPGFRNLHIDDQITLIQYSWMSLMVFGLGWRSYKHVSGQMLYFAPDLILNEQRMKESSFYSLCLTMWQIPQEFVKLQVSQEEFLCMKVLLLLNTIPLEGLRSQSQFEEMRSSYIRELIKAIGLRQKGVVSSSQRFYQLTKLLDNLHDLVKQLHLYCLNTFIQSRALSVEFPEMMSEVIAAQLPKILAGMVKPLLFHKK
Protocol: (§1) Relative Binding Affinities for the Progesterone and Glucocorticoid Receptors
(§2) Uteri and thymus glands were obtained from estradiol-primed immature female rabbits of the New Zealand White strain for preparation of cytosols for the progesterone and glucocorticoid receptor assays, respectively. Tissues were excised and immediately placed in ice cold TEGDM buffer (10 mM Tris, pH 7.4; 1.5 mM EDTA; 10% glycerol vol/vol/; 1 mM dithiothreitol [DTT]; and 20 mM sodium molybdate). The tissues were dissected free of connective tissue and fat, weighed and minced finely. Minced tissues were homogenized in 3 volumes TEGDM/gm with four 10 second bursts of a VirTis Cyclone set at half maximum speed with a 30 second cooling period (in ice) between bursts. Homogenates were centrifuged at 109,663 g at 4° C. for 1 hour to yield the soluble cytosol fiction. Aliquots of cytosol were snap frozen and stored at −75° C.
(§3) All binding assays were carried out at 2-6° C. for 16-18 hours. The following radioactive ligands were used: [1,2-^3H(N)]-progesterone (50.0 Ci/mmole) for the progesterone receptor (PR). […] For the progesterone receptor RBA assays 0.02 ml uterine cytosol or TEDGM buffer, 0.05 ml of various concentrations of test compounds or progesterone, 0.13 ml TEGDM buffer and 0.05 ml [^3H]-progesterone were added to duplicate tubes. For the glucocorticoid receptor RBA assays 0.1 ml thymus cytosol or TEDGM buffer, 0.05 ml of various concentrations of test compounds or dexamethasone, 0.05 ml TEGDM buffer and 0.05 ml [3H]-dexamethasone were added to duplicate tubes. For the estrogen receptor RBA assays 0.05 ml uterine cytosol, 0.1 ml TEGDM buffer, 0.05 ml of various concentrations of test compounds or estradiol and 0.05 ml [^3H]-estradiol were added to duplicate tubes. The concentrations of the test compounds, progesterone, dexamethasone and estradiol ranged from 0.05 to 100 nM and the concentrations of the competitors ranged from 0.5 to 500 nM. Total binding was measured at radioligand concentrations of 3.5 nM and nonspecific binding was measured in the presence of a 200-fold excess of unlabeled progesterone (PR), dexamethasone (GR) or diethylstilbestrol (ER), respectively.
(§4) In all incubations bound and free ligand were separated using dextra-coated charcoal (DCC). A 0.1 ml aliquot of DCC (0.5% charcoal/0.05% Dextran T-70) was added to each tube. The tubes were vortexed and incubated on ice for 10 minutes. Five-tenths ml TEG buffer (without DTT or molybdate) was then added to all tubes to improve supernatant recovery following centrifugation. The charcoal was pelleted by centrifugation at 2,100 g for 15 minutes at 4° C. The supernatants containing the [^3H]-steroid receptor complexes were decanted into vials containing 4 ml Optifluor (Packard Instrument Co.), vortexed, equilibrated in a liquid scintillation counter for 30 minutes and then counted for 2 minutes. This provided the quantity of receptor bound [^3H]-steroid at each competitor concentration.

[3] = molecular target: T2, glucocorticoid receptor (estrogen-primed rabbit thymus) (Oryctolagus cuniculus, UniProt P59667); assay: Relative binding affinity, glucocorticoid receptor; details: Table 2; estrogen-primed rabbit thymus; dexamethasone = 100%
T2 construct: preparation of cytosols for the progesterone and glucocorticoid receptor assays; from tissue; host or cells: thymus of estradiol-primed immature female New Zealand White rabbits (cytosol)
T2 sequence (P59667 1-772): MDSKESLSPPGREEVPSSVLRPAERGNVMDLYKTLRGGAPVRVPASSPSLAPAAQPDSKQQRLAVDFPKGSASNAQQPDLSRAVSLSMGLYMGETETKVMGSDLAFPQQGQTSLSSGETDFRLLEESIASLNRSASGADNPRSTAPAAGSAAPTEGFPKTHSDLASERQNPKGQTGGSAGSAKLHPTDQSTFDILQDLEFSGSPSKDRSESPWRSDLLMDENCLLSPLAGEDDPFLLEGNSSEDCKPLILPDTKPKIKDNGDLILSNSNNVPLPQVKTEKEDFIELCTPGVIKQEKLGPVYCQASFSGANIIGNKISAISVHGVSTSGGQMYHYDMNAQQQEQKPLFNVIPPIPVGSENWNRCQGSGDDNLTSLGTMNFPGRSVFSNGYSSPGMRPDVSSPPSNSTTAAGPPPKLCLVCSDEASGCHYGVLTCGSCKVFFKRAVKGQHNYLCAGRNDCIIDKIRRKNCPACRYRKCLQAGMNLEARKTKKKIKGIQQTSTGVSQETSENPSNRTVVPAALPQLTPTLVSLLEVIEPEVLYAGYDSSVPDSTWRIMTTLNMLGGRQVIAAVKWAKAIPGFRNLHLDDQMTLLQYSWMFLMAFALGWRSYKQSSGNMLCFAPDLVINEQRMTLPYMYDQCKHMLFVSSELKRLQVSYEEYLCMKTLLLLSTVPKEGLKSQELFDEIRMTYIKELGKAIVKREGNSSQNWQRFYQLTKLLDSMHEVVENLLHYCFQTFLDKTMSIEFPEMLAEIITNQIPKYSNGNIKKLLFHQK
Protocol: as §1, §2, §3, §4

| SMILES | BIOLOGICAL ACTIVITY antiClauberg [1] | BINDING AFFINITY Progester [2] [%] | binding affinities compared with the standard, compound 69B [2] | BINDING AFFINITY Glucocortic [3] [%] | antiClauberg / oral antiprogestational activity, in words [1] |
| --- | --- | --- | --- | --- | --- |
| CC(=O)O[C@]1(C(C)=O)CC[C@H]2[C@@H]3CCC4=CC(=O)CCC4=C3[C@@H](c3ccc(N4CCOCC4)cc3)C[C@@]21C [Compound 72, 17α-Acetoxy-11β-[4-(N-Morpholino)phenyl]-19-norpregna-4,9-diene-3,20-dione] | 35 | 109 | binding affinities greater than that observed for the standard | 110 | – |
| CSc1ccc([C@H]2C[C@@]3(C)[C@@H](CC[C@]3(OC(C)=O)C(C)=O)[C@@H]3CCC4=CC(=O)CCC4=C32)cc1 [Compound 74] | <10 | 131 | – | 32 | – |
| COCC1(C(C)=O)CCC2C3CCC4=CC(=O)CCC4=C3C(c3ccc(N(C)C)cc3)CC21C (stereo not drawn) [Compound 91, 17α-Methoxymethyl-11β-[4-(N,N-methylamino)phenyl]-19-norpregna-4,9-diene-3,20-dione] | inactive | 171 | binding affinities greater than that observed for the standard | 59 | – |
| COC1(C(C)=O)CCC2C3CCC4=CC(=O)CCC4=C3C(c3ccc(N(C)C)cc3)CC21C (stereo not drawn) [Compound 97a, 17α-Methoxy-11β-[4-(N,N-dimethylamino)phenyl]-19-norpregna-4,9-diene-3,20-dione] | 110 | 120 | binding affinities greater than that observed for the standard | 52 | greater activity than the standard |
| COC1(C(C)=O)CCC2C3CCC4=CC(=O)CCC4=C3C(c3ccc(N4CCCCC4)cc3)CC21C (stereo not drawn) [Compound 97b, 17α-Methoxy-1-[4-(piperidino)phenyl]-19-norpregna-4,9-diene-3,20-dione] | 99 | 47 | – | 38 | – |
| COCC(=O)C1(OC)CCC2C3CCC4=CC(=O)CCC4=C3C(c3ccc(N4CCCCC4)cc3)CC21C (stereo not drawn) [Compound 113c, 17α,21-Dimethoxy-11β-[4-(N-piperidino)phenyl]-19-norpregna-4,9-diene-3,20-dione] | 70 | 63 | – | 45 | – |
| COCC(=O)C1(OC(C)=O)CCC2C3CCC4=CC(=O)CCC4=C3C(c3ccc(C(C)=O)cc3)CC21C (stereo not drawn) [Compound 123b, 17α-Acetoxy-11β-(4-acetylphenyl)-21-methoxy-19-norpregna-4,9-diene-3,20-dione] | 77 | 64 | – | 45 | – |
| CCC(=O)OCC(=O)[C@@]1(OC(C)=O)CCC2C3CCC4=CC(=O)CCC4=C3C(c3ccc(N(C)C)cc3)C[C@@]21C (stereo partly drawn) [Compound 126a, 17α-Acetoxy-11β-[4-(N,N-dimethylamino)phenyl]-21-propionyloxy-19-norpregna-4,9-diene-3,20-dione] | 170 | 95 | – | 43 | greater activity than the standard |
| COCC(=O)OCC(=O)[C@@]1(OC(C)=O)CC[C@H]2[C@@H]3CCC4=CC(=O)CCC4=C3[C@@H](c3ccc(N(C)C)cc3)C[C@@]21C [Compound 126b] | 125 | 76 | – | 15 | greater activity than the standard |
| COC(=O)OCC(=O)C1(OC(C)=O)CCC2C3CCC4=CC(=O)CCC4=C3C(c3ccc(N(C)C)cc3)CC21C (stereo not drawn) [Compound 126c, 17α-Acetoxy-21-hydroxy-11β-[4-(N,N-dimethylamino)phenyl]-19-norpregna-4,9-diene-3,20-dione-21-methyl carbonate] | 224 | 68 | – | 67 | greater activity than the standard |
